Reference: ChEMBL document CHEMBL5241106, “Discovery of a Dual Tubulin and Poly(ADP-Ribose) Polymerase-1 Inhibitor by Structure-Based Pharmacophore Modeling, Virtual Screening, Molecular Docking, and Biological Evaluation” (J Med Chem, 2021)
Active and inactive are the calls of the source. No cut-off for these calls is given here.

How the values were obtained:
[1] = […] of angiogenesis in human HUVEC cells assessed as inhibition of capillary tube formation at 12.5 uM incubated for 8 hrs by inverted microscopic analysis; assay type: functional; set-up: scale not given: the % may be the effect or the level left
[2] = Toxicity in BALB/c mouse xenografted with human MDA-MB-231 cells assessed as change in lung morphological changes at 1 to 5 mg/kg, ip administered every 4 days for 7 times measured at 48 hrs post-last administration by H and E staining based fluorescence microscopic analysis; assay type: organism-based; details: in vivo, 720 h, dose 1-5 mg/kg, time 30 day
MDA-MB-231 [3] = assay: Inhibition of colony formation in human MDA-MB-231 cells measured after 10 days by crystal violet staining based analysis; assay type: functional, cell-based; details: dose 0.5-12.5 µM, time 10.0 day
Tubulin (Homo sapiens) [4] = target: T1, Tubulin (Homo sapiens) (UniProt P68371+Q9H4B7+P0DPH7+P68366+Q13509+Q71U36+P04350+Q3ZCM7+P07437+P68363+Q9BQE3+Q6PEY2+Q13885+Q9BVA1+Q9BUF5); assay: Inhibition of tubulin polymerization in human MDA-MB-231 cells assessed as cell shrinkage, increase in nuclear disruption and microtubule dispersion at 0.5 to 2.5 uM incubated for 48 hrs by immunofluorescence assay; assay type: cell-based; details: dose 0.5-2.5 µM
MDA-MB-231 [5] = assay: Induction of apoptosis in human MDA-MB-231 cells assessed as apoptotic body formation by measuring change in cell morphology with disruption of cell nuclei incubated for 24 hrs by DAPI staining based confocal laser microscopy; assay type: functional; details: dose 0.5-12.5 µM
[6] = target: Phosphatidylinositol 4,5-bisphosphate 3-kinase catalytic subunit gamma isoform (Homo sapiens, UniProt P48736); assay: Inhibition of PI3KCG (unknown origin)
Tubulin (Bos taurus) = Tubulin (Bos taurus) (UniProt Q6B856+Q862L2+Q862F3); assay: Inhibition of [3H]colchicine binding to tubulin to bovine brain tubulin at 5 to 50 uM by competitive binding assay; assay type: tissue-based; details: dose 5-50 µM
[7] = Toxicity in BALB/c mouse xenografted with human MDA-MB-231 cells assessed as change in kidney morphological changes at 1 to 5 mg/kg, ip administered every 4 days for 7 times measured at 48 hrs post-last administration by H and E staining based fluorescence microscopic analysis; assay type: organism-based; details: in vivo, 720 h, dose 1-5 mg/kg, time 30 day
Tubulin (Homo sapiens) [8] = target: T1, Tubulin (Homo sapiens); assay: Inhibition of tubulin polymerization (unknown origin) at 10 uM by turbidimetric analysis; assay type: protein-complex assay
Tubulin (Homo sapiens) [9] = target: T1, Tubulin (Homo sapiens); assay: Inhibition of tubulin polymerization in human MCF-10A cells assessed as destruction of normal microtubule network at 0.5 to 12.5 uM incubated for 48 hrs by immunofluorescence assay; assay type: cell-based; details: dose 0.5-12.5 µM
MDA-MB-231 [10] = assay: Induction of apoptosis in human MDA-MB-231 cells assessed as late apoptotic cells at 2.5 uM incubated for 48 hrs by Annexin V-FITC/PI staining based flow cytometry (reference value: 5.06%); assay type: functional
MDA-MB-231 [11] = assay: Induction of apoptosis in human MDA-MB-231 cells assessed as necrotic cells at 2.5 uM incubated for 48 hrs by Annexin V-FITC/PI staining based flow cytometry (reference value: 1.86%); assay type: functional
MDA-MB-231 [12] = assay: Induction of apoptosis in human MDA-MB-231 cells assessed as necrotic cells at 12.5 uM incubated for 48 hrs by Annexin V-FITC/PI staining based flow cytometry (reference value: 1.86%); assay type: functional
[13] = Toxicity in BALB/c mouse xenografted with human MDA-MB-231 cells assessed as effect on hemoglobin level at 1 to 5 mg/kg, ip administered every 4 days for 7 times measured at 48 hrs post-last administration; assay type: organism-based; details: in vivo, 720 h, dose 1-5 mg/kg, time 30 day
[14] = Toxicity in BALB/c mouse xenografted with human MDA-MB-231 cells assessed as effect on platelet count at 1 to 5 mg/kg, ip administered every 4 days for 7 times measured at 48 hrs post-last administration; assay type: organism-based; details: in vivo, 720 h, dose 1-5 mg/kg, time 30 day
MDA-MB-231 [15] = assay: Induction of apoptosis in human MDA-MB-231 cells assessed as increase in cleaved caspase-3 level at 0.5 to 12.5 uM incubated for 48 hrs by western blot analysis; assay type: functional, cell-based; details: dose 0.5-12.5 µM
HUVEC = assay: […] of angiogenesis in human HUVEC cells assessed as inhibition of capillary tube formation incubated for 8 hrs by inverted microscopic analysis; assay type: functional, cell-based; details: dose 0.5-12.5 µM
MDA-MB-231 [16] = assay: Cytotoxicity against human MDA-MB-231 cells assessed as inhibition of cell growth incubated for 72 hrs by MTT assay; assay type: functional, cell-based
MDA-MB-231 [17] = assay: Induction of apoptosis in human MDA-MB-231 cells assessed as early apoptotic cells at 12.5 uM incubated for 48 hrs by Annexin V-FITC/PI staining based flow cytometry (reference value: 1.71%); assay type: functional
MDA-MB-231 [18] = assay: Inhibition of colony formation in human MDA-MB-231 cells at 2.5 uM measured after 10 days by crystal violet staining based analysis; assay type: functional; details: MDA-MB-231, 240 h, time 10 day
[19] = target: Poly [ADP-ribose] polymerase 1 (Homo sapiens, UniProt P09874); assay: Inhibition of PARP1 (unknown origin) using [3H]NAD+ as substrate incubated for 15 mins by scintillation counting analysis; details: read-out: IC50
[20] = Cytotoxicity against human MCF-10A cells assessed as inhibition of cell growth incubated for 72 hrs by MTT assay; assay type: toxicity, cell-based
[21] = Toxicity in BALB/c mouse xenografted with human MDA-MB-231 cells assessed as change in spleen morphological changes at 1 to 5 mg/kg, ip administered every 4 days for 7 times measured at 48 hrs post-last administration by H and E staining based fluorescence microscopic analysis; assay type: organism-based; details: in vivo, 720 h, dose 1-5 mg/kg, time 30 day
MDA-MB-231 [22] = assay: Induction of cell cycle arrest in human MDA-MB-231 cells assessed as proportion of cells at G2/M phase at 2.5 uM incubated for 48 hrs by propidium iodide staining based flow cytometry (reference value: 9.81%); assay type: functional
MDA-MB-231 [23] = assay: Anticancer activity against human MDA-MB-231 cells xenografted in BALB/c mouse assessed as reduction in tumor volume at 5 mg/kg, ip administered for every 4 days for 7 times; assay type: functional, organism-based; details: time 28.0 day
MDA-MB-231 [24] = assay: Induction of apoptosis in human MDA-MB-231 cells assessed as early apoptotic cells at 0.5 uM incubated for 48 hrs by Annexin V-FITC/PI staining based flow cytometry (reference value: 1.71%); assay type: functional
[25] = Toxicity in BALB/c mouse xenografted with human MDA-MB-231 cells assessed as effect on RBC count at 1 to 5 mg/kg, ip administered every 4 days for 7 times measured at 48 hrs post-last administration; assay type: organism-based, Erythrocyte; details: in vivo, 720 h, dose 1-5 mg/kg, time 30 day

inhibition (Tubulin (Homo sapiens) [4]): Active | IC50 [6]: > 10 µM | inhibition (Tubulin (Bos taurus)): Active | inhibition (Tubulin (Homo sapiens) [8]): 91% | inhibition (Tubulin (Homo sapiens) [9]): inactive | IC50 [19]: 0.48 µM
Compound: O=c1[nH]c(/C=C/c2cccc(F)c2)nc2ccccc12
Activity [1]: 100% | Activity [2]: Non-Toxic | inhibition (MDA-MB-231 [3]): Dose-Dependent Effect | Activity (MDA-MB-231 [5]): Dose-Dependent Effect | Activity [7]: Non-Toxic | Activity (MDA-MB-231 [10]): 6.62% | Activity (MDA-MB-231 [11]): 1% | Activity (MDA-MB-231 [12]): 4.29% | Activity [13]: Non-Toxic | Activity [14]: Non-Toxic | Activity (MDA-MB-231 [15]): Active | Activity (HUVEC): Dose-Dependent Effect | Activity (MDA-MB-231 [16]): Active | Activity (MDA-MB-231 [17]): 3.32% | inhibition at 2.5 µM (MDA-MB-231 [18]): 100% | IC50 at 72 h [20]: > 10 µM | Activity [21]: Non-Toxic | Activity (MDA-MB-231 [22]): 33.56% | Activity (MDA-MB-231 [23]): Active | Activity (MDA-MB-231 [24]): 2.16% | Activity [25]: Non-Toxic
